Measured values: PubChem BioAssay AID256 (DTP/NCI, 2004)
“And” between values parts separate entries of the source, which are not always exact repeats. Equal entries are not always repeated. Inconclusive results and toxic doses are left out. How the source made its calls: active means survival T/C of 150% or more; inactive means T/C below 125% in these data.

System: CD2F1 mice, L1210 leukemia ip, survival T/C
Assay: NCI In Vivo Anticancer Drug Screen. Data for tumor model L1210 Leukemia (intraperitoneal) in CD2F1 (CDF1) mice
Conditions: higher = longer survival
Experimental: The antitumor activity of compounds was measured in mice bearing transplantable tumors. Survival or tumor size were measured and the results are expressed as the measurement made in the treated group (T) divided by the measurement made in the vehicle treated control group (C). The tumor model used in this assay is L1210 Leukemia (intraperitoneal) in CD2F1 (CDF1) mice

[1] = endpoint: mean survival time, dose: 100.0 mg/kg/injection, schedule: Q01DX009 (ip), vehicle: saline with Tween-80
[2] = endpoint: mean survival time, dose: 200.0 mg/kg/injection, schedule: Q01DX009 (ip), vehicle: saline with Tween-80
[3] = endpoint: mean survival time, dose: 400.0 mg/kg/injection, schedule: Q01DX009 (ip), vehicle: saline with Tween-80
[4] = endpoint: mean survival time, dose: 100.0 mg/kg/injection, schedule: Q04DX002 (ip), vehicle: saline with Tween-80
[5] = endpoint: mean survival time, dose: 200.0 mg/kg/injection, schedule: Q04DX002 (ip), vehicle: saline with Tween-80

Measured: T/C

[Cl][Pt+2][Cl].[NH-]C1CCCC1.[NH-]C1CCCC1
inactive: endpoint: mean survival time, dose: 5.0 mg/kg/injection, schedule: Q01DX009 (ip), vehicle: Klucel (hydroxypropylcellulose) (HPC) 103 % of control | endpoint: mean survival time, dose: 10.0 mg/kg/injection, schedule: Q01DX009 (ip), vehicle: Klucel (hydroxypropylcellulose) (HPC) 104 % of control | endpoint: mean survival time, dose: 20.0 mg/kg/injection, schedule: Q01DX009 (ip), vehicle: Klucel (hydroxypropylcellulose) (HPC) 116 % of control and 104 % of control and 108 % of control | endpoint: mean survival time, dose: 20.0 mg/kg/injection, schedule: Q04DX003 (ip), vehicle: Klucel (hydroxypropylcellulose) (HPC) 103 % of control | endpoint: mean survival time, dose: 40.0 mg/kg/injection, schedule: Q01DX001 (ip), vehicle: Klucel (hydroxypropylcellulose) (HPC) 96 % of control | endpoint: mean survival time, dose: 40.0 mg/kg/injection, schedule: Q01DX009 (ip), vehicle: Klucel (hydroxypropylcellulose) (HPC) 115 % of control and 104 % of control | endpoint: mean survival time, dose: 40.0 mg/kg/injection, schedule: Q04DX003 (ip), vehicle: Klucel (hydroxypropylcellulose) (HPC) 103 % of control | endpoint: mean survival time, dose: 80.0 mg/kg/injection, schedule: Q01DX001 (ip), vehicle: Klucel (hydroxypropylcellulose) (HPC) 105 % of control | endpoint: mean survival time, dose: 80.0 mg/kg/injection, schedule: Q01DX009 (ip), vehicle: Klucel (hydroxypropylcellulose) (HPC) 121 % of control and 124 % of control | endpoint: mean survival time, dose: 80.0 mg/kg/injection, schedule: Q04DX003 (ip), vehicle: Klucel (hydroxypropylcellulose) (HPC) 111 % of control | endpoint: mean survival time, dose: 160.0 mg/kg/injection, schedule: Q01DX001 (ip), vehicle: Klucel (hydroxypropylcellulose) (HPC) 102 % of control | endpoint: mean survival time, dose: 160.0 mg/kg/injection, schedule: Q01DX009 (ip), vehicle: Klucel (hydroxypropylcellulose) (HPC) 115 % of control | endpoint: mean survival time, dose: 160.0 mg/kg/injection, schedule: Q04DX003 (ip), vehicle: Klucel (hydroxypropylcellulose) (HPC) 111 % of control | endpoint: mean survival time, dose: 320.0 mg/kg/injection, schedule: Q01DX001 (ip), vehicle: Klucel (hydroxypropylcellulose) (HPC) 106 % of control | endpoint: mean survival time, dose: 320.0 mg/kg/injection, schedule: Q01DX009 (ip), vehicle: Klucel (hydroxypropylcellulose) (HPC) 115 % of control and 103 % of control | endpoint: mean survival time, dose: 320.0 mg/kg/injection, schedule: Q04DX003 (ip), vehicle: Klucel (hydroxypropylcellulose) (HPC) 108 % of control | endpoint: mean survival time, dose: 640.0 mg/kg/injection, schedule: Q01DX001 (ip), vehicle: Klucel (hydroxypropylcellulose) (HPC) 114 % of control

Cc1c(/C=N/NC=O)[nH]c(=O)[nH]c1=O
inactive: endpoint: mean survival time, dose: 100.0 mg/kg/injection, schedule: Q01DX001 (ip), vehicle: saline 89 % of control | endpoint: mean survival time, dose: 200.0 mg/kg/injection, schedule: Q01DX001 (ip), vehicle: saline 91 % of control | endpoint: mean survival time, dose: 400.0 mg/kg/injection, schedule: Q01DX001 (ip), vehicle: saline 86 % of control

CCCCCCCCCCCCCCCCCC[n+]1cccc(C(=O)c2ccccc2)c1
inactive: endpoint: mean survival time, dose: 9.38 mg/kg/injection, schedule: Q01DX001 (ip), vehicle: other 100 % of control | endpoint: mean survival time, dose: 18.75 mg/kg/injection, schedule: Q01DX001 (ip), vehicle: other 108 % of control

[O]=[Mo]
inactive: endpoint: mean survival time, dose: 100.0 mg/kg/injection, schedule: Q04DX003 (ip), vehicle: saline 107 % of control

CCOC(=O)/C(C#N)=C1\CCCc2ccccc21
inactive: endpoint: mean survival time, dose: 100.0 mg/kg/injection, schedule: Q04DX003 (ip), vehicle: acetone 94 % of control | endpoint: mean survival time, dose: 200.0 mg/kg/injection, schedule: Q04DX003 (ip), vehicle: acetone 91 % of control

OC1(c2c(F)c(F)c(F)c(F)c2F)C2CCC1CC2 (stereo unspecified)
inactive: endpoint: mean survival time, dose: 37.5 mg/kg/injection, schedule: Q04DX002 (ip), vehicle: saline with Tween-80 98 % of control | endpoint: mean survival time, dose: 75.0 mg/kg/injection, schedule: Q04DX002 (ip), vehicle: saline with Tween-80 110 % of control | endpoint: mean survival time, dose: 150.0 mg/kg/injection, schedule: Q04DX002 (ip), vehicle: saline with Tween-80 98 % of control | endpoint: mean survival time, dose: 300.0 mg/kg/injection, schedule: Q04DX002 (ip), vehicle: saline with Tween-80 102 % of control

CC1=N/C(=C/c2ccccc2)C(=O)O1
inactive: [1] 97 % of control | [2] 98 % of control | [3] 88 % of control

CC1=NC(c2ccccn2)=NNC(c2ccccn2)=C1c1ccccc1
inactive: endpoint: mean survival time, dose: 12.5 mg/kg/injection, schedule: Q01DX009 (ip), vehicle: water 98 % of control | endpoint: mean survival time, dose: 25.0 mg/kg/injection, schedule: Q01DX009 (ip), vehicle: water 96 % of control | endpoint: mean survival time, dose: 50.0 mg/kg/injection, schedule: Q01DX009 (ip), vehicle: water 98 % of control | endpoint: mean survival time, dose: 100.0 mg/kg/injection, schedule: Q01DX009 (ip), vehicle: water 86 % of control | endpoint: mean survival time, dose: 200.0 mg/kg/injection, schedule: Q01DX009 (ip), vehicle: water 90 % of control

COc1nn(O)cc(C)c1=N
inactive: endpoint: mean survival time, dose: 6.25 mg/kg/injection, schedule: Q04DX002 (ip), vehicle: saline with Tween-80 93 % of control | endpoint: mean survival time, dose: 12.5 mg/kg/injection, schedule: Q04DX002 (ip), vehicle: saline with Tween-80 101 % of control | endpoint: mean survival time, dose: 25.0 mg/kg/injection, schedule: Q04DX002 (ip), vehicle: saline with Tween-80 101 % of control

CCOP(=O)(OCC)OCC1OC(n2cnc3c(N)ncnc32)C(O)C1O (stereo unspecified)
inactive: endpoint: median survival time, dose: 12.5 mg/kg/injection, schedule: Q01DX005 (ip), vehicle: distilled water + Tween-80 96 % of control | endpoint: median survival time, dose: 25.0 mg/kg/injection, schedule: Q01DX005 (ip), vehicle: distilled water + Tween-80 96 % of control | endpoint: median survival time, dose: 50.0 mg/kg/injection, schedule: Q01DX005 (ip), vehicle: distilled water + Tween-80 103 % of control | endpoint: median survival time, dose: 100.0 mg/kg/injection, schedule: Q01DX005 (ip), vehicle: distilled water + Tween-80 102 % of control | endpoint: median survival time, dose: 200.0 mg/kg/injection, schedule: Q01DX005 (ip), vehicle: distilled water + Tween-80 101 % of control

CCN(CC)CCCC(C)NC(c1ccc2c(c1)Sc1ccccc1O2)[P+](=O)O (stereo unspecified)
inactive: endpoint: mean survival time, dose: 50.0 mg/kg/injection, schedule: Q04DX002 (ip), vehicle: saline with Tween-80 97 % of control | endpoint: mean survival time, dose: 100.0 mg/kg/injection, schedule: Q01DX001 (ip), vehicle: saline sonified 95 % of control | [4] 90 % of control | endpoint: mean survival time, dose: 200.0 mg/kg/injection, schedule: Q01DX001 (ip), vehicle: saline sonified 91 % of control | [5] 97 % of control

CC(=O)NC1C(O)C(NC(C)=O)C(OC(C)=O)C(OC(C)=O)C1OC(C)=O (stereo unspecified)
inactive: [1] 95 % of control | [2] 103 % of control | [3] 103 % of control

CCCCCCCCCCCCCCCCOc1ccc(S(=O)(=O)NC2CCCCC2)cc1[N+](=O)[O-]
inactive: endpoint: mean survival time, dose: 100.0 mg/kg/injection, schedule: Q04DX003 (ip), vehicle: saline with Tween-80 90 % of control | endpoint: mean survival time, dose: 200.0 mg/kg/injection, schedule: Q04DX003 (ip), vehicle: saline with Tween-80 93 % of control | endpoint: mean survival time, dose: 400.0 mg/kg/injection, schedule: Q04DX003 (ip), vehicle: saline with Tween-80 94 % of control

CCN=C(NCC)SCCSC(=NCC)NCC
inactive: [4] 104 % of control | [5] 102 % of control

COC1C(CO)OC(n2cnc3c(=S)nc(N)[nH]c32)C1O (stereo unspecified)
inactive: endpoint: mean survival time, dose: 12.5 mg/kg/injection, schedule: Q01DX009 (ip), vehicle: Klucel (hydroxypropylcellulose) (HPC) 98 % of control and 101 % of control | endpoint: mean survival time, dose: 25.0 mg/kg/injection, schedule: Q01DX009 (ip), vehicle: Klucel (hydroxypropylcellulose) (HPC) 101 % of control and 106 % of control | endpoint: mean survival time, dose: 50.0 mg/kg/injection, schedule: Q01DX009 (ip), vehicle: Klucel (hydroxypropylcellulose) (HPC) 101 % of control and 106 % of control | endpoint: mean survival time, dose: 100.0 mg/kg/injection, schedule: Q01DX009 (ip), vehicle: Klucel (hydroxypropylcellulose) (HPC) 123 % of control | endpoint: mean survival time, dose: 400.0 mg/kg/injection, schedule: Q01DX009 (ip), vehicle: Klucel (hydroxypropylcellulose) (HPC) 100 % of control

CC(=O)C(C(C)=O)C(=[C-]C(F)(F)F)C(F)(F)F.CC(=O)C(C(C)=O)C(=[C-]C(F)(F)F)C(F)(F)F.[Pd+2]
inactive: endpoint: mean survival time, dose: 3.13 mg/kg/injection, schedule: Q04DX003 (ip), vehicle: distilled water + Tween-80 102 % of control | endpoint: mean survival time, dose: 6.25 mg/kg/injection, schedule: Q04DX003 (ip), vehicle: distilled water + Tween-80 96 % of control | endpoint: mean survival time, dose: 12.5 mg/kg/injection, schedule: Q04DX003 (ip), vehicle: distilled water + Tween-80 102 % of control
